Assay results published in patent US20260159512A1, “BCAT2 INHIBITORS” (AGIOS PHARMACEUTICALS, INC., priority 2021, published 2026).

What follows are molecules tested against T1, BCAT2 (Homo sapiens, UniProt O15382) (assay: BCAT2 in vitro enzyme inhibition assay (resazurin/diaphorase-coupled fluorescence)). Settings: average where tested multiple times.
T1 sequence (O15382 28-392): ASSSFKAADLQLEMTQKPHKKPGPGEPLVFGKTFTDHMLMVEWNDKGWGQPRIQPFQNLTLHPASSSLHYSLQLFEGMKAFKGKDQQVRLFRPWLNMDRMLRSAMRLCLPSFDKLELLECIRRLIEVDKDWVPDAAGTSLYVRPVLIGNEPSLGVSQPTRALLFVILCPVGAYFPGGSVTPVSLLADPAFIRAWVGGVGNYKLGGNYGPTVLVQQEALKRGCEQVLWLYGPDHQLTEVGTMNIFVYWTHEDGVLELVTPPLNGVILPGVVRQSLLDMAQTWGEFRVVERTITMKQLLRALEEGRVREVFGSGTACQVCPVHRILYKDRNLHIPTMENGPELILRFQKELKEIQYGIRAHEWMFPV
Format: biochemical
Procedure: BCAT2 In Vitro Enzyme Inhibition Assay
1.67× hBCAT2 Enzyme Mix: 0.33 μg/mL hBCAT2, 1× Buffer
2.5× Substrate Mix: 460 μM L-leucine, 420 μM α-KetoGlutarate, 10 U/mL glutamate dehydrogenase, 10 mM NAD, 30 μg/mL diaphorase, 20 μm Resazurin
BCAT2 enzyme stock solution was diluted to prepare a 1.67× hBCAT2 Enzyme Mix. 1 μL of test compound was first added to the reaction wells followed by 30 μL of 1.67× hBCAT2 Enzyme Mix and incubated at room temperature (25° C.) for one hour. Meanwhile the Substrate Mix was prepared. The reaction was initiated by the addition of 20 μL of the 2.5× Substrate Mix, bringing the final reaction mix of all components to 1×. Reactions were quenched after one hour by the addition of 25 μL of 6% SDS and reaction progress was measured via fluorescence read (Ex 540/Em 590).
Test Compound Preparation:
Test compounds were prepared at 50× final concentration in DMSO, 1 to 3 dilutions were made for 10 points. The compounds were added to the assay as a 1 to 50 dilution (1 μL in 50 μL) to yield a top assay final concentration of 100 μM, decreasing 3-fold for 10 points. Each compound dilution series test also included an assay max (1 μL DMSO Added in lieu of compound, Full Reaction Components Included) and Min (1 μL DMSO Added in lieu of compound, 30 μl of 1.67× hBCAT2 Enzyme Mix replated by 30 μL of 1× Buffer). All tests were performed in technical duplicate.
Where a compound was tested multiple times, the average value of the tests is reported.
Work on `O=C(NC1COCC(n2c(-c3ncccc3F)nc3cnc(-n4ccnn4)cc32)C1)c1ncc(C(F)F)s1` (single isomer, unassigned) [Example 145, 5-(difluoromethyl)-N-(5-(2-(3-fluoropyridin-2-yl)-6-(1H-1,2,3-triazol-1-yl)-1H-imidazo[4,5-c]pyridin-1-yl)tetrahydro-2H-pyran-3-yl)thiazole-2-carboxamide] yielded an IC50 of over 1000 nM.
`O=C(NC1COCC(n2c(-c3ccccn3)nc3cnc(-n4ccnn4)cc32)C1)c1ncc(C(F)F)s1` (single isomer, unassigned) [Example 147, 5-(difluoromethyl)-N-(5-(2-(pyridin-2-yl)-6-(1H-1,2,3-triazol-1-yl)-1H-imidazo[4,5-c]pyridin-1-yl)tetrahydro-2H-pyran-3-yl)thiazole-2-carboxamide] gave an IC50 of over 1000 nM.
With `CC(C)Cc1nc2cnc(-c3ccn(C(F)F)n3)cc2n1[C@H]1C[C@H](O)C[C@@H](NC(=O)c2ncc(Cl)s2)C1` (single isomer, unassigned) [Example 212] the IC50 was over 1000 nM.
`CO[C@@H]1C[C@@H](NC(=O)c2ncc(Cl)s2)C[C@@H](n2c(CC(C)C)nc3cnc(-n4nccn4)cc32)C1` (single isomer, unassigned) [Example 422] gave an IC50 of over 1000 nM.
`CO[C@@H]1C[C@@H](NC(=O)c2ccc(Cl)s2)C[C@@H](n2c(CC(C)C)nc3cnc(-c4ncccn4)cc32)C1` (single isomer, unassigned) [Example 438] showed an IC50 of 100 to 500 nM.
Work on `CO[C@H]1C[C@H](NC(=O)c2ncc(Cl)s2)C[C@H](n2c(-c3ccccc3F)nc3cnc(-n4nccn4)cc32)C1` (stereo in doubt) [Example 423, 5-chloro-N-((1R,3S,5S)-3-(2-(2-fluorophenyl)-6-(2H-1,2,3-triazol-2-yl)-1H-imidazo[4,5-c]pyridin-1-yl)-5-methoxycyclohexyl)thiazole-2-carboxamide] yielded an IC50 of 500 to 1000 nM.
In the case of `CO[C@H]1C[C@H](NC(=O)c2ncc(Cl)s2)C[C@H](n2c(CC(C)C)nc3cnc(-c4ccccn4)cc32)C1` (stereo in doubt) [Example 425, 5-chloro-N-((1R,3S,5S)-3-(2-isobutyl-6-(pyridin-2-yl)-1H-imidazo[4,5-c]pyridin-1-yl)-5-methoxycyclohexyl)thiazole-2-carboxamide], the IC50 is reported as over 1000 nM.
For `CO[C@H]1C[C@H](NC(=O)c2ncc(Cl)s2)C[C@H](n2c(-c3ccccc3C#N)nc3cnc(-c4nc[nH]n4)cc32)C1` (stereo in doubt) [Example 445, 5-chloro-N-((1R,3S,5S)-3-(2-(2-cyanophenyl)-6-(1H-1,2,4-triazol-3-yl)-1H-imidazo[4,5-c]pyridin-1-yl)-5-methoxycyclohexyl)thiazole-2-carboxamide], the IC50 was 100 to 500 nM.
In the case of `CC(C)Cc1nc2cnc(-c3nc[nH]n3)cc2n1[C@H]1C[C@@H](NC(=O)c2ccc(Cl)s2)CC(F)(F)C1` (stereo in doubt) [Example 453, 5-chloro-N-((1R,5S)-3,3-difluoro-5-(2-isobutyl-6-(1H-1,2,4-triazol-3-yl)-1H-imidazo[4,5-c]pyridin-1-yl)cyclohexyl)thiophene-2-carboxamide], the IC50 is reported as 100 to 500 nM.
With `CC(C)[C@@H](N)c1nc2cnc(-c3ccccn3)cc2n1[C@@H]1CCC[C@H](NC(=O)c2ncc(Cl)s2)C1` [Example 167, N-((1S,3R)-3-(2-((R)-1-amino-2-methylpropyl)-6-(pyridin-2-yl)-1H-imidazo[4,5-c]pyridin-1-yl)cyclohexyl)-5-chlorothiazole-2-carboxamide] the IC50 was 100 to 500 nM.
`O=C(N[C@H]1CCC[C@@H](n2c(C3CNCCO3)nc3cnc(-c4nc[nH]n4)cc32)C1)c1ncc(Cl)s1` (stereo partly drawn) [Example 174, 5-chloro-N-((1S,3R)-3-(2-(morpholin-2-yl)-6-(1H-1,2,4-triazol-3-yl)-1H-imidazo[4,5-c]pyridin-1-yl)cyclohexyl)thiazole-2-carboxamide] showed an IC50 of over 1000 nM.
With `C[C@H]1CCCN1c1cc2c(cn1)nc(-c1ccccc1F)n2[C@@H]1CCC[C@H](NC(=O)c2ncc(Cl)s2)C1` [Example 194, 5-chloro-N-((1S,3R)-3-(2-(2-fluorophenyl)-6-((S)-2-methylpyrrolidin-1-yl)-1H-imidazo[4,5-c]pyridin-1-yl)cyclohexyl)thiazole-2-carboxamide] the IC50 was 500 to 1000 nM.
